Measurements reported in patent US20230080811A1 (priority 2020, published 2023).
Counter-ions that a name gives are not always drawn.

Test: In vivo pharmacokinetic investigation, subcutaneous injection, plasma by LC-MS
Design: species or system rat
Details: in rats, inferred from PK and duration of efficacy
Procedure: The obtained pharmaceutical composition was subcutaneously injected into male SD rats. Blood was collected at predetermined time points. The content of the drug in plasma was determined by LC-MS method, and the pharmacokinetics in vivo was investigated.
Experimental animals: male SD rats with a weight of 200-300 g, source: […] OF MATERIA MEDICA, CHINESE ACADEMY OF SCIENCES;
Experimental grouping: Rats were randomly divided into groups according to the following table, with 6 rats in each group;
Experimental procedure: Rats were subcutaneously injected, and at a predetermined time point, 0.5 ml of blood was collected from the orbit of the rat and placed in a centrifuge tube with heparin sodium anticoagulation. The tube was centrifuged at 3000 rpm for 10 min to separate the plasma, and the plasma concentration was detected by LC-MS method.
The pharmacokinetic (PK) parameters of the compositions were calculated, and the results were statistically analyzed by t-test.

SMILES: CCCN1CCCC[C@H]1C(=O)Nc1c(C)cccc1C [ropivacaine hydrochloride]
- onset concentration: about 20 ng/ml
